In PubChem BioAssay (NCI):
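Cultured in 96-well plates, cells were exposed to test compound for 48 hours across five concentrations. Definition used: TGI = concentration required for complete inhibition of growth.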

Experiments:
Experiment in all cases: DTP human tumour cell line panel, 48 h
COLO 205 colon = tested on: COLO 205 colon
DU-145 prostate = tested on: DU-145 prostate
SNB-19 CNS = tested on: SNB-19 CNS
MDA-N = tested on: MDA-N
HS 578T breast = tested on: HS 578T breast
SF-295 CNS = tested on: SF-295 CNS
SK-MEL-5 melanoma = tested on: SK-MEL-5 melanoma
HOP-62 NSCLC = tested on: HOP-62 NSCLC
RPMI-8226 leukemia = tested on: RPMI-8226 leukemia
OVCAR-4 ovarian = tested on: OVCAR-4 ovarian
SF-539 CNS = tested on: SF-539 CNS
MALME-3M melanoma = tested on: MALME-3M melanoma
MDA-MB-231 breast = tested on: MDA-MB-231 breast
OVCAR-5 ovarian = tested on: OVCAR-5 ovarian
U251 CNS = tested on: U251 CNS
OVCAR-8 ovarian = tested on: OVCAR-8 ovarian
SR leukemia = tested on: SR leukemia
T-47D breast = tested on: T-47D breast
SF-268 CNS = tested on: SF-268 CNS
A498 renal = tested on: A498 renal
SK-MEL-2 melanoma = tested on: SK-MEL-2 melanoma
CCRF-CEM leukemia = tested on: CCRF-CEM leukemia
NCI-H460 lung = tested on: NCI-H460 lung
HT29 colon = tested on: HT29 colon
HCT-15 colon = tested on: HCT-15 colon
MCF7 breast = tested on: MCF7 breast
786-0 renal = tested on: 786-0 renal
UACC-62 melanoma = tested on: UACC-62 melanoma
BT-549 breast = tested on: BT-549 breast
IGROV1 ovarian = tested on: IGROV1 ovarian
PC-3 prostate = tested on: PC-3 prostate
K-562 leukemia = tested on: K-562 leukemia
NCI/ADR-RES ovarian = tested on: NCI/ADR-RES ovarian
UACC-257 melanoma = tested on: UACC-257 melanoma
SNB-75 CNS = tested on: SNB-75 CNS
UO-31 renal = tested on: UO-31 renal
KM12 colon = tested on: KM12 colon
SW-620 colon = tested on: SW-620 colon
LOX IMVI melanoma = tested on: LOX IMVI melanoma
M14 melanoma = tested on: M14 melanoma
RXF 393 renal = tested on: RXF 393 renal
TK-10 renal = tested on: TK-10 renal
EKVX NSCLC = tested on: EKVX NSCLC
MOLT-4 leukemia = tested on: MOLT-4 leukemia
SK-OV-3 ovarian = tested on: SK-OV-3 ovarian
HCC-2998 colon = tested on: HCC-2998 colon
HOP-92 NSCLC = tested on: HOP-92 NSCLC
MDA-MB-435 = tested on: MDA-MB-435
OVCAR-3 ovarian = tested on: OVCAR-3 ovarian
ACHN renal = tested on: ACHN renal
SK-MEL-28 melanoma = tested on: SK-MEL-28 melanoma
SN12C renal = tested on: SN12C renal
HCT-116 colon = tested on: HCT-116 colon
CAKI-1 renal = tested on: CAKI-1 renal
NCI-H23 lung = tested on: NCI-H23 lung
NCI-H522 lung = tested on: NCI-H522 lung
A549 NSCLC = tested on: A549 NSCLC
HL-60(TB) leukemia = tested on: HL-60(TB) leukemia
NCI-H226 lung = tested on: NCI-H226 lung

Measured: TGI

COC(=O)c1sc(=S)sc1SCc1cccc(CSc2sc(=S)sc2C(=O)OC)c1
26.6 µM: SNB-75 CNS
71.2 µM: HOP-92 NSCLC
34.3 µM: RXF 393 renal
62.2 µM: A498 renal
67.1 µM: HOP-62 NSCLC
96.9 µM: TK-10 renal
51.3 µM: SK-OV-3 ovarian
62.6 µM: SF-539 CNS
86.3 µM: SNB-19 CNS
94.1 µM: BT-549 breast
not listed: A549 NSCLC | HL-60(TB) leukemia | NCI-H226 lung
> 100 µM: all other assays above

COc1ccc(OC/C(N)=N/NC(=O)c2ccncc2)cc1
not listed: SK-MEL-5 melanoma | SR leukemia | UO-31 renal | NCI-H226 lung
> 100 µM: all other assays above

CN(CC(=O)Nc1ccccc1C(=O)O)c1ccccc1
not listed: COLO 205 colon | SK-MEL-2 melanoma | UACC-62 melanoma | NCI/ADR-RES ovarian | SK-OV-3 ovarian | MDA-MB-435
> 100 µM: all other assays above

C=C1CC[C@@H]2[C@](C)(COC(=O)CCC(=O)OC)CCC[C@@]2(C)[C@@H]1CCC1=CC(=O)OC1
58.8 µM: CCRF-CEM leukemia
81.3 µM: CAKI-1 renal
73 µM: T-47D breast
34.2 µM: RPMI-8226 leukemia
51.4 µM: SR leukemia
47.7 µM: MOLT-4 leukemia
51.2 µM: HL-60(TB) leukemia
not listed: SF-268 CNS | UACC-62 melanoma | SNB-75 CNS | RXF 393 renal | HCC-2998 colon | HOP-92 NSCLC
> 100 µM: all other assays above

CC1(c2ccc(Cl)cc2)C=C(c2ccc(Cl)cc2)C(C#N)=C(C(C#N)C#N)N1 (stereo unspecified)
21.3 µM: OVCAR-3 ovarian
43.3 µM: BT-549 breast
73.8 µM: SR leukemia
30.8 µM: SK-OV-3 ovarian
33.7 µM: A498 renal
54.9 µM: MDA-MB-231 breast
33 µM: OVCAR-5 ovarian | U251 CNS
98.2 µM: NCI-H226 lung
33.5 µM: SN12C renal
33.9 µM: SF-295 CNS
38.6 µM: KM12 colon
31.8 µM: MDA-N
42.2 µM: A549 NSCLC
33.6 µM: SNB-75 CNS
25.6 µM: IGROV1 ovarian
38.2 µM: RXF 393 renal
27.3 µM: HCT-116 colon
30.7 µM: OVCAR-8 ovarian
30.5 µM: UO-31 renal | ACHN renal
32.3 µM: LOX IMVI melanoma | NCI-H23 lung
30.4 µM: HCT-15 colon
28.2 µM: SK-MEL-5 melanoma | UACC-62 melanoma
36 µM: M14 melanoma
34.5 µM: MDA-MB-435
47.1 µM: SK-MEL-2 melanoma
23.9 µM: SF-268 CNS
26.9 µM: 786-0 renal
> 100 µM: RPMI-8226 leukemia | CCRF-CEM leukemia | K-562 leukemia | SW-620 colon
32.6 µM: OVCAR-4 ovarian
29.4 µM: HS 578T breast
41.1 µM: HL-60(TB) leukemia
32.8 µM: COLO 205 colon | HT29 colon
47 µM: MOLT-4 leukemia
31.3 µM: EKVX NSCLC | HCC-2998 colon
46.9 µM: T-47D breast
39.9 µM: NCI/ADR-RES ovarian
37.3 µM: MCF7 breast | UACC-257 melanoma
31.5 µM: PC-3 prostate
43.9 µM: SF-539 CNS
52.9 µM: NCI-H460 lung
33.8 µM: TK-10 renal
66.6 µM: SK-MEL-28 melanoma
31.9 µM: HOP-62 NSCLC
29.6 µM: DU-145 prostate
29.1 µM: MALME-3M melanoma
37.2 µM: SNB-19 CNS
32.2 µM: CAKI-1 renal

COC(=O)C(=O)C(C(=O)C(=O)Nc1cccc(OC)c1)c1nc2ccc(Cl)cc2[nH]c1=O (stereo unspecified)
not listed: HOP-62 NSCLC | SR leukemia | RXF 393 renal
> 100 µM: all other assays above

CCCN1C(=O)CN(S(=O)(=O)c2ccc(Cl)cc2)C1=O
not listed: OVCAR-8 ovarian | NCI/ADR-RES ovarian | MOLT-4 leukemia
> 100 µM: all other assays above
